{"source": "patent US11332472B2", "about": "“Substituted piperidines as inhibitors of ubiquitin specific protease 7” (LES LABORATOIRES SERVIER, priority 2017, dated 2022)", "key": {"[1]": {"tested_on": "MM 1S multiple myeloma tumour cell line", "assay": "In vitro cytotoxicity, MTT assay, MM1S cells", "assay_type": "cell-based", "conditions": "Homo sapiens, MM1.S, 96 hours exposure", "protocol": "(§1) The cytotoxicity studies were evaluated by MTT assay and carried out on MM 1S multiple myeloma or Z138 mantle cell lymphoma tumour cell lines. The cells are distributed onto microplates and exposed to the test compounds for 96 hours. The cell viability is then quantified by a colorimetric assay, the Microculture Tetrazolium Assay (Carmichael et. al., Cancer Res. […], 47, 936-942)."}, "USP7": {"molecular_target": "T1, USP7 (Homo sapiens, UniProt Q93009, C315A)", "T1 construct": "0.25 nM His-His-USP7 (aa208-560, [C315A]) was incubated with compound; His-His (N)", "T1 sequence (Q93009 208-560 C315A)": "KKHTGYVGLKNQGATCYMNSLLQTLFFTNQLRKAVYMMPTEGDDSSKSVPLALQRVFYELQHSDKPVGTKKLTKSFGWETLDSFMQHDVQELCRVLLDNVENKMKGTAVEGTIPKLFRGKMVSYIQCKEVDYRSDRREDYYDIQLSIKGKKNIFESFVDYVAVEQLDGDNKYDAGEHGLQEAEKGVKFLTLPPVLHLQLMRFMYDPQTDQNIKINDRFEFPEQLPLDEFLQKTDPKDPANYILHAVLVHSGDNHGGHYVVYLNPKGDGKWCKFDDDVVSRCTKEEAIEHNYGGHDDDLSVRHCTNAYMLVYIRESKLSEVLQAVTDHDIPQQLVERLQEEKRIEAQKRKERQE", "assay": "Inhibition of USP7 by Fluorescence Intensity (FLINT) readings, Ubiquitin-Rhodamine-110 substrate", "assay_type": "biochemical", "conditions": "0.25 nM His-His-USP7 (aa208-560, [C315A]); compound 60 minutes at 30° C.; 500 nM Ubiquitin-Rhodamine substrate; 11-point curves", "summary_of_the_method": "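His-His-USP7 (aa208-560, C315A) at 0.25 nM was preincubated with compound for 60 min at 30 °C in 100 mM Bicine pH 8.0, 0.01% Triton X-100, 1 mM TCEP, 10% DMSO. 500 nM ubiquitin-rhodamine-110 was then added, with fluorescence (Ex 485/Em 535 nm) read every 3 min for 21 min. IC50 came from kinetic-rate inhibition, 11-point curves, 4-parameter fit.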"}, "[2]": {"tested_on": "Z138 mantle cell lymphoma tumour cell line", "assay": "In vitro cytotoxicity, MTT assay, Z138 cells", "assay_type": "cell-based", "conditions": "Homo sapiens, Z-138; Z138 tumour cell line (underlined values); 96 hours exposure", "protocol": "as §1"}}}
{"compound": "O=C([C@@H]1CCCC[C@H]1n1cccc1)N1CCC(O)(Cn2cnc3c(ccn3-c3ccccc3)c2=O)CC1", "note": "(single isomer, unassigned) [Example 14, 3-[[4-hydroxy-1-[trans-2-pyrrol-1-ylcyclohexanecarbonyl]-4-piperidyl]methyl]-7-phenyl-pyrrolo[2,3-d]pyrimidin-4-one]", "values": [{"measurement": "IC50", "setting": "[1]", "result": 6.42, "unit": "nM"}, {"measurement": "IC50", "setting": "USP7", "result": 27.1, "unit": "nM"}, {"measurement": "IC50", "setting": "[2]", "result": 14.7, "unit": "nM"}]}
{"compound": "COc1ccc(-n2ccc3c(=O)n(CC4(O)CCN(C(=O)[C@@H]5CCC(F)(F)C[C@H]5c5ccccc5)CC4)cnc32)cc1", "note": "(single isomer, unassigned) [Example 34, 3-[[1-[trans-4,4-difluoro-2-phenyl-cyclohexanecarbonyl]-4-hydroxy-4-piperidyl]methyl]-7-(4-methoxyphenyl)pyrrolo[2,3-d]pyrimidin-4-one]", "values": [{"measurement": "IC50", "setting": "[1]", "result": 24.5, "unit": "nM"}, {"measurement": "IC50", "setting": "USP7", "result": 23.1, "unit": "nM"}, {"measurement": "IC50", "setting": "[2]", "result": 5.66, "unit": "nM"}]}
{"compound": "COc1ccc(-n2ccc3c(=O)n(CC4(O)CCN(C(=O)[C@@H]5CCC(F)(F)C[C@H]5c5ccoc5)CC4)cnc32)cc1", "note": "(single isomer, unassigned) [Example 75, 3-[[1-[trans-4,4-difluoro-2-(3-furyl)cyclohexanecarbonyl]-4-hydroxy-4-piperidyl]methyl]-7-(4-methoxyphenyl)pyrrolo[2,3-d]pyrimidin-4-one]", "values": [{"measurement": "IC50", "setting": "[1]", "result": 3.29, "unit": "nM"}, {"measurement": "IC50", "setting": "USP7", "result": 59.1, "unit": "nM"}]}
{"compound": "COc1ccc(-n2ccc3c(=O)n(CC4(O)CCN(C(=O)C5CCC(=O)N(C)C5c5ccccc5)CC4)cnc32)cc1", "note": "(single isomer, unassigned) [Example 117, 3-{[4-hydroxy-1-trans-1-methyl-6-oxo-2-phenylpiperidine-3-carbonyl)piperidin-4-yl]methyl}-7-(4-methoxyphenyl)-3,7-dihydro-4H-pyrrolo[2,3-d]pyrimidin-4-one]", "values": [{"measurement": "IC50", "setting": "[1]", "result": 26.4, "unit": "nM"}, {"measurement": "IC50", "setting": "USP7", "result": 30.9, "unit": "nM"}]}
{"compound": "O=C(C1CC(F)CCC1c1ccccc1)N1CCC(O)(Cn2cnc3c(ccn3-c3ccccc3)c2=O)CC1", "note": "(stereo not drawn) [Example 37, 3-[[1-[5-fluoro-2-phenyl-cyclohexanecarbonyl]-4-hydroxy-4-piperidyl]methyl]-7-phenyl-pyrrolo[2,3-d]pyrimidin-4-one]", "values": [{"measurement": "IC50", "setting": "[1]", "result": 84.1, "unit": "nM"}, {"measurement": "IC50", "setting": "USP7", "result": 46.3, "unit": "nM"}]}
